Measured values from patent US11952328B2, “Selective ship inhibitors for treating disease” (THE RESEARCH FOUNDATION FOR THE STATE UNIVERSITY OF NEW YORK, priority 2018, dated 2024).

Tests used:
NK cells = assay: NK cell IFNγ production by intracellular flow cytometry after two-day in vivo treatment; parameters: species or system mice; conditions: two-day 3AC vs vehicle
Protocol: FIGS. 3B-3E show activation of NK cells and T cells following exposure to the SHIP1 inhibitor 3AC in vivo. NK cells from two-day 3AC- or vehicle-treated mice were stimulated by incubation on uncoated plates, on plates coated with anti-NK1.1, anti-NKp46, or anti-NKG2D antibody, or on uncoated plates but in the presence of PMA and ionomycin. Representative flow plots (FIG. 3B) and box and whisker plots (FIG. 3C) show the frequency of NK cell production of IFNγ determined by intracellular flow cytometry. […] Anti-CD107a (LAMP-1) PE antibody was added for the final 5 hours of incubation. Degranulation of CD8+ T cells was determined by analysis of CD107a expression by flow cytometry. […]
SHIP1 is recruited directly to the T cell receptor (TcR), as well as to the scaffolding protein Dokl that limits T cell activation by the TcR (Reginald, K., Revisiting the timing of action of the PAG adaptor using quantitative proteomics analysis of primary T cells. J Immunol. (2015); 195: 5472-5481; Waterman, P. M. et al., The inositol 5phosphatase SHIP-1 and adaptors Dok-1 and 2 play central roles in CD4-mediated inhibitory signaling. Immunol Lett. (2012); 143: 122-130; Freeburn, R. W. et al., Evidence that SHIP-1 contributes to phosphatidylinositol 3,4,5-trisphosphate metabolism in T lymphocytes and can regulate novel phosphoinositide 3-kinase effectors. […]

SHIP1 = molecular target: T1, SHIP1 (Homo sapiens, UniProt Q92835); conditions: Brooks et al. 2010; cited from earlier work
T1 sequence (Q92835 1-1189): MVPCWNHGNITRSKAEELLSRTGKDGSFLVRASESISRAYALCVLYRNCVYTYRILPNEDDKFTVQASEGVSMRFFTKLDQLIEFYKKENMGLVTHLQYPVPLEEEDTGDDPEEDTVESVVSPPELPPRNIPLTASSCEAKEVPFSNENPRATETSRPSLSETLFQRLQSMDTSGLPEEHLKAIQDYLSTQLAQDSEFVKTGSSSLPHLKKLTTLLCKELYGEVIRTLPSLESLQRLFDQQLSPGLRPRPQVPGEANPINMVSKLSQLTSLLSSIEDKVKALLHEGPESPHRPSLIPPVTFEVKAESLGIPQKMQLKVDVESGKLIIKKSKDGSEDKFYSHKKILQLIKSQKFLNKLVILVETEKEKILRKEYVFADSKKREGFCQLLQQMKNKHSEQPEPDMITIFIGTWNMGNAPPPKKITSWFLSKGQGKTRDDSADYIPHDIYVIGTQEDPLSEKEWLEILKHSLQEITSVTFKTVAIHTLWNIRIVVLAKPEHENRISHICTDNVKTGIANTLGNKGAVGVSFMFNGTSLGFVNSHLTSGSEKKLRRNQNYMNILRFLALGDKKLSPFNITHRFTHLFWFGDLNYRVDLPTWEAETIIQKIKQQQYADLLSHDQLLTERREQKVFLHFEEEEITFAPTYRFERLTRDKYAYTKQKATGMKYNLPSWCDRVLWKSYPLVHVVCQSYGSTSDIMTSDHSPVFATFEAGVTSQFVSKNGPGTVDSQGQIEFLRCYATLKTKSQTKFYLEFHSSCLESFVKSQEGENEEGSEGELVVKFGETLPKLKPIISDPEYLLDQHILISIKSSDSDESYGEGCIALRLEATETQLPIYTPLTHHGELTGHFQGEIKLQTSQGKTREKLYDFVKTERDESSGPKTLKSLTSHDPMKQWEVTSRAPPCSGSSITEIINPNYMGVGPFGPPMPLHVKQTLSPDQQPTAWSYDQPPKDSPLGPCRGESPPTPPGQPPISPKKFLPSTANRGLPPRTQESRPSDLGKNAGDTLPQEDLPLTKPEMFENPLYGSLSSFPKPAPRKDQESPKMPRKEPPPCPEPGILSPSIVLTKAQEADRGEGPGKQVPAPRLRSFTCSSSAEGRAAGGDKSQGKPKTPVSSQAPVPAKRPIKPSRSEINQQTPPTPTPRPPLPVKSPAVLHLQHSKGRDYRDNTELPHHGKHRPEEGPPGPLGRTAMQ

For `CC(C)CCC[C@@H](C)[C@H]1CC[C@H]2[C@@H]3CCC4C[C@H](N)CC[C@]4(C)[C@H]3CC[C@]12C` (stereo partly drawn) [Compound 3AC, 3-α-aminocholestane], the “NK cell IFNγ production” value (NK cells; stimulated with PMA and ionomycin) is listed as “no difference”, the “NK cell IFNγ production” value (NK cells; stimulation with anti-NK1.1, anti-NKp46 or anti-NKG2D) is listed as “significantly increased” and the “selectivity for SHIP1” value (SHIP1) is listed as “high degree of selectivity”.
